In this test the test system is primary cultured neurons. In words: LC3-II turnover analysis (LC3 immunoblot). It counts as cell-based, rat. The conditions noted are these: FIG. 3B. A general note: Immunoblotting shows a protein as a band on a membrane.

Take `COc1cc(OC)c2c(=O)c3cc4c(cc3oc2c1)OCO4` [HN-1703, 7,9-dimethoxy-10H-[1,3]dioxolo[4,5-b]xanthen-10-one]: where the note is “in the presence of bafilomycin A1, a lysosome mature inhibitor”, the “LC3-II formation compared to the control group” value is listed as “significantly increased LC3-II formation”. Also, where the note is “up to 36 hours after treating the compound”, the “LC3-II (autophagy activation marker) compared to the control group” value is “significantly increased LC3-II”.

Values taken from patent US12605358B2, “Composition for preventing or treating nervous system diseases comprising compound that inhibits mTOR signaling pathway as active ingredient” (ALIAD BIOPHARMA, priority 2021, dated 2026).
